Our source for the IC50 and remaining activity values is PMC5496578 (Beilstein Journal of Organic Chemistry, 2017).

One assay addresses T1, human placental 17β-HSD1 (Homo sapiens, UniProt P14061).
T1 sequence (P14061 1-328): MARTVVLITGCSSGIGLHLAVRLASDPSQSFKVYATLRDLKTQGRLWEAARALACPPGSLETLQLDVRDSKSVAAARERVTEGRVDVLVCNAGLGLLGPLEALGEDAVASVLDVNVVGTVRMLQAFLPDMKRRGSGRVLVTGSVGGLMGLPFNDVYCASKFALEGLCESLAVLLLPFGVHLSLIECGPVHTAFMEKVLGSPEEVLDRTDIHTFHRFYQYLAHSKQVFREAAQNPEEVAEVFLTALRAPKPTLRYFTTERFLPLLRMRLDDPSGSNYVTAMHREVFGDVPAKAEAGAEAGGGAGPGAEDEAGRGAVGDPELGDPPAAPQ
The assay can be described thus: in vitro radiosubstrate incubation, 17β-HSD1 inhibition (estrone to 17β-estradiol conversion). In kind it is biochemical.
Conditions: not given
As to the method:
Determination of 17β-HSD1 inhibition
The inhibitory effects exerted on 17β-HSD1 activity by the newly synthesized conjugates were determined via an in vitro radiosubstrate incubation method described in detail earlier.[1]
Radiolabeled Chemicals (St. Louis, MO, USA).
NADPH cofactor, other chemicals and solvents of analytical grade purity were purchased from Sigma (St. Louis, MO, USA) and Fluka (Buchs, Switzerland).
Kieselgel-G TLC layers (Si 254 F, 0.25 mm thick) were obtained from Merck (Darmstadt, Germany). Human term placenta specimens were collected and used with the ethical approval of the Institutional Human Investigation Review Board.
Human term placenta specimens were combined and homogenized with an Ultra-Turrax in 0.1 M HEPES buffer (pH 7.3) containing 1 mM EDTA and 1 mM dithiotreitol, and the cytosol was obtained by fractionated centrifugation. The substrate tritium- […]
propylene glycol in HEPES buffer solution, whereas the test compounds were applied in 10 µl of dimethyl sulfoxide solution. (These organic solvent contents in the 200 µl […]
activity substantially.) Cofactor NADPH was used in excess concentration (100 µM).
The enzymatic reaction was started by the addition of the cytosol aliquots. Incubation was carried out at 37 °C for 2.5 min and was then stopped by the addition of ethyl […]
were added to the samples. The two steroids were separated by TLC with the solvent system dichloromethane/diisopropyl ether/ethyl acetate (70:15:15 v/v) and UV spots were used to trace the separated steroids. Spots were cut out and the radioactivity of […]
counting. Test compounds were applied at 10 µM and their inhibitory effects were expressed by relative conversions, in comparison with the transformation measured in the noninhibited control incubation. Two measurements were performed for each test compound and the mean was calculated. The IC50 values (the inhibitor concentration which decreases the enzyme activity to 50%) were determined for the […]
In these cases, conversions were measured at different concentrations in the interval 0.001–50 µM. IC50 results were calculated by using unweighted iterative least-squares logistic curve-fitting by means of the “absolute IC50 calculation” function of GraphPad Prism 4.0. The IC50 of unlabeled […]
1 Bacsa, I.; Jójárt, R.; Schneider, G.; Wölfling, J.; Maróti, P.; Herman, B. E.; Szécsi,
2 Szabó, J.; Jerkovics N.; Schneider G.; Wölfling J.; Bózsity N.; Minorics R.; Zupkó I.;
In the case of `C[C@@]12CC[C@@H]3c4cc(C#Cc5ccccc5)c(O)cc4CC[C@H]3[C@@H]1CCC2=O` [Compound 8a], the half-inhibitory concentration (IC50) turned out to be 150 nM.
Consider `Cc1ccc(C#Cc2cc3c(cc2O)CC[C@@H]2[C@@H]3CC[C@@]3(C)C(=O)CC[C@@H]23)cc1` [Compound 8b], for which the IC50 was found to be 1400 nM.
For the compound `COc1ccc(C#Cc2cc3c(cc2O)CC[C@@H]2[C@@H]3CC[C@@]3(C)C(=O)CC[C@@H]23)cc1` [Compound 8c], the midpoint of inhibition, the IC50, lay at 230 nM.
With `C[C@@]12CC[C@@H]3c4cc(C#Cc5ccc(F)cc5)c(O)cc4CC[C@H]3[C@@H]1CCC2=O` [Compound 8d], the midpoint of inhibition, the IC50, lay at 300 nM.
`C[C@@]12CC[C@@H]3c4cc(C#Cc5ccc(C(F)(F)F)cc5)c(O)cc4CC[C@H]3[C@@H]1CCC2=O` [Compound 8e]: the IC50 worked out at 930 nM.
Compound `COc1ccc(CCc2cc3c(cc2O)CC[C@@H]2[C@@H]3CC[C@@]3(C)C(=O)CC[C@@H]23)cc1` [Compound 16] had an IC50 of 470 nM.

Staying with this assay, now noted: read-out: Relative conversion ± SD.
For `COc1cc2c(cc1C#Cc1ccccc1)[C@H]1CC[C@@]3(C)C(=O)CC[C@H]3[C@@H]1CC2` [Compound 9a], the remaining activity at 10 µM came out at 88 ± 12%.
With `COc1cc2c(cc1C#Cc1ccc(C)cc1)[C@H]1CC[C@@]3(C)C(=O)CC[C@H]3[C@@H]1CC2` [Compound 9b], the remaining activity at 10 µM stood at 84 ± 5%.
As to `COc1ccc(C#Cc2cc3c(cc2OC)CC[C@@H]2[C@@H]3CC[C@@]3(C)C(=O)CC[C@@H]23)cc1` [Compound 9c], the remaining activity at 10 µM came out at 85 ± 1%.
Turning to `COc1cc2c(cc1C#Cc1ccc(F)cc1)[C@H]1CC[C@@]3(C)C(=O)CC[C@H]3[C@@H]1CC2` [Compound 9d], the remaining activity at 10 µM was 94 ± 5%.
As to `COc1cc2c(cc1C#Cc1ccc(C(F)(F)F)cc1)[C@H]1CC[C@@]3(C)C(=O)CC[C@H]3[C@@H]1CC2` [Compound 9e], the remaining activity at 10 µM turned out to be 76 ± 1%.
On the same count and under the same terms, the result for `C[C@@]12CC[C@@H]3c4ccc(O)c(C#Cc5ccccc5)c4CC[C@H]3[C@@H]1CCC2=O` [Compound 10a] reads 92 ± 15%; that for `Cc1ccc(C#Cc2c(O)ccc3c2CC[C@@H]2[C@@H]3CC[C@@]3(C)C(=O)CC[C@@H]23)cc1` [Compound 10b], 89 ± 0.4%; that for `COc1ccc(C#Cc2c(O)ccc3c2CC[C@@H]2[C@@H]3CC[C@@]3(C)C(=O)CC[C@@H]23)cc1` [Compound 10c], 91 ± 2%.
On the same count and under the same terms, the result for `C[C@@]12CC[C@@H]3c4ccc(O)c(C#Cc5ccc(F)cc5)c4CC[C@H]3[C@@H]1CCC2=O` [Compound 10d] reads 96 ± 7%; that for `C[C@@]12CC[C@@H]3c4ccc(O)c(C#Cc5ccc(C(F)(F)F)cc5)c4CC[C@H]3[C@@H]1CCC2=O` [Compound 10e], 85 ± 1%; that for `COc1ccc2c(c1C#Cc1ccccc1)CC[C@@H]1[C@@H]2CC[C@@]2(C)C(=O)CC[C@@H]12` [Compound 11a], 92 ± 12%.
On the same count and under the same terms, in the case of `COc1ccc2c(c1C#Cc1ccc(C)cc1)CC[C@@H]1[C@@H]2CC[C@@]2(C)C(=O)CC[C@@H]12` [Compound 11b] it was 52 ± 12%; in that of `COc1ccc(C#Cc2c(OC)ccc3c2CC[C@@H]2[C@@H]3CC[C@@]3(C)C(=O)CC[C@@H]23)cc1` [Compound 11c], 83 ± 8%; in that of `COc1ccc2c(c1C#Cc1ccc(F)cc1)CC[C@@H]1[C@@H]2CC[C@@]2(C)C(=O)CC[C@@H]12` [Compound 11d], 83 ± 1%.
Turning to `COc1ccc2c(c1C#Cc1ccc(C(F)(F)F)cc1)CC[C@@H]1[C@@H]2CC[C@@]2(C)C(=O)CC[C@@H]12` [Compound 11e], the remaining activity at 10 µM came to 79 ± 3%.
For the compound `COc1ccc(-c2cc3cc4c(cc3o2)CC[C@@H]2[C@@H]4CC[C@@]3(C)C(=O)CC[C@@H]23)cc1` [Compound 12], the remaining activity at 10 µM is 92 ± 2%.
On the same count and under the same terms, in the case of `COc1ccc(/C=C\c2cc3c(cc2OC)CC[C@@H]2[C@@H]3CC[C@@]3(C)C(=O)CC[C@@H]23)cc1` [Compound 13] it was 70 ± 6%; in that of `COc1ccc(-c2cc3c4c(ccc3o2)[C@H]2CC[C@@]3(C)C(=O)CC[C@H]3[C@@H]2CC4)cc1` [Compound 14], 102 ± 6%; in that of `COc1ccc(/C=C/c2c(OC)ccc3c2CC[C@@H]2[C@@H]3CC[C@@]3(C)C(=O)CC[C@@H]23)cc1` [Compound 15], 80 ± 12%.
Turning to `COc1ccc(CCc2cc3c(cc2OC)CC[C@@H]2[C@@H]3CC[C@@]3(C)C(=O)CC[C@@H]23)cc1` [Compound 17], the remaining activity at 10 µM is 63 ± 8%.
As to `COc1ccc(CCc2c(O)ccc3c2CC[C@@H]2[C@@H]3CC[C@@]3(C)C(=O)CC[C@@H]23)cc1` [Compound 18], the remaining activity at 10 µM worked out at 98 ± 3%.
As for `COc1ccc(CCc2c(OC)ccc3c2CC[C@@H]2[C@@H]3CC[C@@]3(C)C(=O)CC[C@@H]23)cc1` [Compound 19], the remaining activity at 10 µM was 94 ± 1%.

Another assay addresses T1, human placental 17β-HSD1.
Assay: not given
Set-up: method as in PMID 26476182, PMID 27424610. Particulars: precursors marked with asterisk; cited from earlier work.
Turning to `COc1cc2c(cc1I)[C@H]1CC[C@@]3(C)C(=O)CC[C@H]3[C@@H]1CC2` [Compound 4], the IC50 is greater than 10000 nM.
For `COc1ccc2c(c1I)CC[C@@H]1[C@@H]2CC[C@@]2(C)C(=O)CC[C@@H]12` [Compound 6], the IC50 is 560 nM.
